Patent US9718823B2, “2, 6-Di-nitrogen-containing substituted purine derivative, and preparation method, pharmaceutical composition and use thereof” (Zhejiang Medicine Co., Ltd. Xinchang Pharmaceutical Factory, priority 2013, dated 2017)
Where two headings read alike, the source gives them in different places.

Legend:
[1] = tested on: U87MG human glioblastoma Multiforme cell strain; assay: Antitumor cell proliferation in vitro, CCK-8 detection kit, U87MG; assay type: cell-based; conditions: U-87 MG, 72 h, U-87MG cells, 1st and 2nd test where printed
Protocol: (§1) The half inhibitory concentration IC50 of proliferation of three kinds of tumor cell strain (U87MG, PC-3, BT474) for 12 candidate compounds of the present invention is detected by CCK-8 detection kits.
U87MG human glioblastoma Multiforme cell strain (cell bank of Chinese Academy of Sciences)
(§2) The studied compounds are dissolved by DMSO to make the final concentration 10 mM.
(§3) • a) Collecting the cells in logarithmic phase, counting, and resuspending the cells with complete medium. • b) Adjusting the concentration of cells to a suitable concentration, inoculating in 96 well plates, each well is inoculated to 100 μl cell suspension.
(§4) c) incubating cells for 24 hours in a 5% CO2 incubator at temperature of 37° C., under the condition of 100% relative humidity.
(§5) a) The cells in logarithmic phase is collected, counted, resuspended with complete medium. The concentration of cells is adjusted to a suitable concentration (determined in accordance with the optimizable test results of cell density), and the cells is inoculated in 96 well plates, wherein each well is inoculated 100 μl cell suspension, Cells are incubated for 24 hours in 5% CO2 incubator at temperature of 37° C. under the condition of 100% relative humidity.
(§6) b) The test compounds are diluted to 500 μM with culture medium, then diluted in series eight times. […] as 25 μl/well. The final concentrations of the compounds are diluted from 100 μM to 0 μM, with 4 times dilution, and there are a total of 10 concentration points.
(§7) c) Cells are incubated for 72 hours in 5% CO2 incubator at temperature of 37° C. under the condition of 100% relative humidity.
(§8) d) The culture medium is aspirated and discarded, and complete medium containing 10% CCK-8 is incubated in a incubator at 37° C. for 2˜4 hours.
(§9) e) After shocking gently, the absorbance of the culture medium is measured at 450 nm wavelength on SpectraMax M5 Microplate Reader, with the absorbance at 650 nm as reference, to calculate the inhibition rate.

[2] = tested on: PC-3 human prostate cancer cell strain; assay: Antitumor cell proliferation in vitro, CCK-8 detection kit, PC-3; assay type: cell-based; conditions: Homo sapiens, PC-3, 72 h, PC-3 cells, 1st and 2nd test where printed
Protocol: as §1
PC-3 human prostate cancer cell strain (cell bank of Chinese Academy of Sciences)
as §2, §3, §4, §5, §6, §7, §8, §9

[3] = tested on: PC-3 cell Akt (Ser473) phosphorylation; assay: Inhibition of phosphorylation level of PC-3 cell Akt (Ser473), Cisbio HTRF phospho Akt (Ser473) cell-based assay; set-up: species or system human; conditions: Homo sapiens, PC-3, PC-3 cells, hEGF 100 ng/ml stimulation; 1st and 2nd test where printed
Protocol: The inhibitory activity of the compounds of present invention to the phosphorylation level of PC-3 cell Akt (Ser473) is studied by using Cisbio HTRF phospho Akt (Ser473) cell-based assay test kit.
Cell strain: PC-3 prostate cancer cells line (cell bank of Chinese Academy of Sciences) is cultured by using culture medium (F12K+10% FBS).
hEGF is prepared as stock solution of 100 ug/ml with 10 mM acetic acid, and the stock solution is diluted to 200 ng/ml with serum-free medium, added 50 ul to each well to be stimulated.
b) Preparation of Complete Lysate • 4×Lysis Buffer is diluted 4 times with ddH2O to prepare 1×Lysis Buffer. • 100×Blocking Reagent is diluted 100 times with 1×Lysis Buffer.
c) Preparation of Detection Liquid • 20×Anti-Phospho-Akt is diluted 20 times with Detection Buffer. • 20×Anti-Akt is diluted 20 times with Detection Buffer.
The compounds are diluted with DMSO, and the working concentration of compounds is 100 times of detection concentration.
Cells in logarithmic growth phase are collected, counted, and resuspended with complete culture medium;
The cell concentration is adjusted to appropriate concentration, and cell suspension is inoculated into 96 well plates at 50 μl per well;
Cells are incubated for more than 4 h in the 5% CO2 incubator at temperature of 37° C., relative humidity of 100%;
Cell plate is removed from the incubator. The cell suspension is aspirated gently, and 50 ul serum-free F12K medium is quickly added, then the cell plate is placed into the incubator to culture overnight.
The compounds are diluted in a linear gradient with DMSO.
0.5 ul compounds is added into the test well, mixed on oscillators, and incubated at room temperature for 2 hours.
Proportioned hEGF solution is added to test well at 50 μl per well, and the final concentration is 100 ng/ml. serum-free medium is added into The negative control well at 50 μl per well.
The solution is mixed on oscillator and incubated at room temperature for 2 hours.
The liquid in 96 well plates is aspirated by multichannel pipette or the supernatant is discarded gently. The proportioned complete lysate is added quickly at 50 μl per well.
The solution is mixed on oscillator and lysed at room temperature for 30 min.
16 μl cell lysate is transferred from the 96 well plates to white low volume 384 well plates, and the proportioned two pairs of detection antibody are added. The solution is mixed on oscillator, and incubated at room temperature for 4 hours to detect the readings.

[4] = tested on: BT474 human breast cancer cell strain; assay: Antitumor cell proliferation in vitro, CCK-8 detection kit, BT474; assay type: cell-based; conditions: Homo sapiens, BT-474, 72 h, BT-474 cells, 1st and 2nd test where printed
Protocol: as §1
BT474 human breast cancer cell strain (cell bank of Chinese Academy of Sciences) Reagents and materials:
as §2, §3, §4, §5, §6, §7, §8, §9

[5] = molecular target: T1, PI3Kδ (Homo sapiens, UniProt O00329); assay: Inhibitory activity to PI3K δ, PI 3-Kinase (human) HTRF Assay kit; assay type: biochemical; conditions: for Inhibition rate % to PI3K delta: dihydrate di-methanesulfonate
T1 construct: purchased Millipore 14-604
Summary of the method: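 Inhibition of human PI3Kδ was assessed with the Millipore PI 3-Kinase (human) HTRF Assay kit. PI3Kδ was screened at 2 ng/well, diluted in 2×PIP2 operating fluid. Reactions were 20 μL and contained 100 μM ATP. Stop solution was Stop A and Stop B mixed 3:1. Detection solution was DM C, DM A and DM B mixed 18:1:1. Compounds were prepared from DMSO stocks, and percent inhibition was reported.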

[6] = molecular target: T2, PI3K α (Homo sapiens, UniProt P42336); assay: Inhibitory activity to PI3K α, PI 3-Kinase (human) HTRF Assay kit; assay type: biochemical; conditions: read-out: % Inhibition Rate to PI3K α
T2 construct: purchased Millipore 14-602
Summary of the method: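 HTRF assay using human PI3Kα at 8 ng/well, 100 μM ATP and PIP2 (2× working stock 20 μM) in 20 μL reaction containing 1% DMSO. Screened at 10 μM and 1 μM for percent inhibition, with selected compounds then taken to IC50 determination.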

T1 sequence (O00329 whole entry): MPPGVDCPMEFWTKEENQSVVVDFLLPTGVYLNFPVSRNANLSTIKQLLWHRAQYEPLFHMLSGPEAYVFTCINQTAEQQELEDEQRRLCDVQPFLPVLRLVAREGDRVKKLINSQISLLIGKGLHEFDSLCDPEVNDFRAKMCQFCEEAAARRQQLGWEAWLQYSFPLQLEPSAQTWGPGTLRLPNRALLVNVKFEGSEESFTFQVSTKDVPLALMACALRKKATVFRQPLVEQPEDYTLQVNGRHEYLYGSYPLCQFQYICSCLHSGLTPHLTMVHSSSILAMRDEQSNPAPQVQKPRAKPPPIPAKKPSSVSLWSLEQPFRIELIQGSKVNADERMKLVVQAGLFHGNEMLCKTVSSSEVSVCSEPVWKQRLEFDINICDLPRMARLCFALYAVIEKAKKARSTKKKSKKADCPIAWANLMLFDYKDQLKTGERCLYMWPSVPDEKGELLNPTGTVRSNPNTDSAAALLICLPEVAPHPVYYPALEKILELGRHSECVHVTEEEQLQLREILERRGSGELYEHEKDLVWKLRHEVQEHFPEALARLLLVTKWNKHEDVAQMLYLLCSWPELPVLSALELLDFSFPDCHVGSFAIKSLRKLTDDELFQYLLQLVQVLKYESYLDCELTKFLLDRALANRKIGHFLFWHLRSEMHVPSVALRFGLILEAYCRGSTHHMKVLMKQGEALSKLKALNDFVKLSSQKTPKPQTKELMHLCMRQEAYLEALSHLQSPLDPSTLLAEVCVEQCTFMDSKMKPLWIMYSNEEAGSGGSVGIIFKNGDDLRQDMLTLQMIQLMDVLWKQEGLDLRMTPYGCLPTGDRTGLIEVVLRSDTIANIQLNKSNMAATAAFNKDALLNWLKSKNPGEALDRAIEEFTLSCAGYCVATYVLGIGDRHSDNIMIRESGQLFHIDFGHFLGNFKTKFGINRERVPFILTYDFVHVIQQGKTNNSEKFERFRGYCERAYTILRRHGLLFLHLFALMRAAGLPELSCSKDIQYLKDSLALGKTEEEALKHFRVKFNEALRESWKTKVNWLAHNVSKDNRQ
T1 sequence (P27986 whole entry partner): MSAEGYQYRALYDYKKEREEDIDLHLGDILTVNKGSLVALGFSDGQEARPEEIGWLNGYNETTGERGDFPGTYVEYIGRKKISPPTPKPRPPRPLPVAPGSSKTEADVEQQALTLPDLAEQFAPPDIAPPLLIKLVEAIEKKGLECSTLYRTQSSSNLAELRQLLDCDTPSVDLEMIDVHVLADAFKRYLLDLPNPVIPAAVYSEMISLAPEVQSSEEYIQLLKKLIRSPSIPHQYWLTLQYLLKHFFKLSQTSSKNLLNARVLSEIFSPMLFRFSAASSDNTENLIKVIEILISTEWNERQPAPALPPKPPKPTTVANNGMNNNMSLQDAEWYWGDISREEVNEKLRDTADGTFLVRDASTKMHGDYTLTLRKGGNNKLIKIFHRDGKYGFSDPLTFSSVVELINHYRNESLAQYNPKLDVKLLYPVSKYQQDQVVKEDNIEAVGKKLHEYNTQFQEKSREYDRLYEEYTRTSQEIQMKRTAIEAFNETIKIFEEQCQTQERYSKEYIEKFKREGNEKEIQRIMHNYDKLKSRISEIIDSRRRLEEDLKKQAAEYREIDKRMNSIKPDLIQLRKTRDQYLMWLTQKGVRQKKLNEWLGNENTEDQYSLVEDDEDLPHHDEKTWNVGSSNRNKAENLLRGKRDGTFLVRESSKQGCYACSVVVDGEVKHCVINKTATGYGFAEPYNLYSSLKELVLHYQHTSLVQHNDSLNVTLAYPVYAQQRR
T2 sequence (P42336 whole entry): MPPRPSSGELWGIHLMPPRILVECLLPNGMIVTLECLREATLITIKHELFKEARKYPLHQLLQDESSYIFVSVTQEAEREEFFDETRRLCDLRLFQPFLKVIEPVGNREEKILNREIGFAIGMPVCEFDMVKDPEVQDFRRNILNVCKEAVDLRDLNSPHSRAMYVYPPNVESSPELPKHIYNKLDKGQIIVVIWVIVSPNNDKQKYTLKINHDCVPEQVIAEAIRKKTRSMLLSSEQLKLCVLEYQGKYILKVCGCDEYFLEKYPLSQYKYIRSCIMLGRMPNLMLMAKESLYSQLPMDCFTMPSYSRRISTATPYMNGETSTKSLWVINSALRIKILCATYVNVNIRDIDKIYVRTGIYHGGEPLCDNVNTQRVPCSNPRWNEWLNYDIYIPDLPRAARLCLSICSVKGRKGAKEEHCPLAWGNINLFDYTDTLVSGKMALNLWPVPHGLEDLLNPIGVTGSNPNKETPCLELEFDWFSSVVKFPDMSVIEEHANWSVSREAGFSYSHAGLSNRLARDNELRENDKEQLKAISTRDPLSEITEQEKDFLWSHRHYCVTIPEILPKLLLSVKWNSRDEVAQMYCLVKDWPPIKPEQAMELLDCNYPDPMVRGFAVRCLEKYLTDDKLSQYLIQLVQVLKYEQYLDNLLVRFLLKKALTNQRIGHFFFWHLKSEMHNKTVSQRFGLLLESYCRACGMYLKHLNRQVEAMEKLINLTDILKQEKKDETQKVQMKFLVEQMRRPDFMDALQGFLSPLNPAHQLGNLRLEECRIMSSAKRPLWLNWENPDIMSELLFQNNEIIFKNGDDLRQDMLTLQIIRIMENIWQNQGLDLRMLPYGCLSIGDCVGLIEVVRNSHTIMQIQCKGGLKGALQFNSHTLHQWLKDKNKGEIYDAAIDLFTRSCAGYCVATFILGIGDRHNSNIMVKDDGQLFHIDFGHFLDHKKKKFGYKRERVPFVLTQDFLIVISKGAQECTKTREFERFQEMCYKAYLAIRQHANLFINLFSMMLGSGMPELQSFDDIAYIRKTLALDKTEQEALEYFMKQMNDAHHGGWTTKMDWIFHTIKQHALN
T2 sequence (P27986 whole entry partner): as the sequence (P27986 whole entry partner) above

Structure (SMILES) | IC50 [1] | IC50 [2] | IC50 [3] | IC50 [4] | inhibition at 0.4 µM ([5]; 0.4 μM (Table 8), read-out: Inhibition rate % to PI3K delta) | inhibition at 2 µM ([5]; 2 μM (Table 8), read-out: Inhibition rate % to PI3K delta) | inhibition at 10 µM ([5]; 10 μM (Table 8), read-out: Inhibition rate % to PI3K delta) | Inhibition rate % to PI3K delta ([5]; 0.4 μM (Table 8), 0.4 µM) | Inhibition rate % to PI3K delta ([5]; 2 μM (Table 8), 2 µM) | Inhibition rate % to PI3K delta ([5]; 10 μM (Table 8), 10 µM) | inhibition at 1 µM ([6]; 1 μM) | inhibition at 10 µM ([6]; 10 μM) | inhibition at 1 µM ([5]; 1 μM (Table 7), read-out: Inhibition rate % to PI3Kδ) | inhibition at 10 µM ([5]; 10 μM (Table 7), read-out: Inhibition rate % to PI3Kδ)
c1cc(C2CC2)c2cc(Nc3nc(NC4CC4)c4nc[nH]c4n3)ccc2n1 [MED1007-115, N6-cyclopropyl-N2-(4-cyclopropylquinoline-6-yl)-9H-purine-2,6-diamine dihydrate di-methanesulfonate] | 7360 nM | 1570 nM | 260 nM | 1950 nM | 36.8% | 60.2% | 94.6% |  |  |  |  |  |  | 
c1ccc(-c2ccnc3ccc(Nc4nc(N5CCOCC5)c5nc[nH]c5n4)cc23)cc1 [MED1007-109S, N-(6-morpholine-9H-purine-2-yl)-4-phenyl quinoline-6-amine dihydrate di-methanesulfonate] | 18300 nM | 696 nM | 116 nM | 612 nM |  |  |  | 30.22% | 57.34% | 94.36% |  |  |  | 
CC(C)Nc1nc(Nc2ccc3nccc(-c4ccccc4)c3c2)nc2[nH]cnc12 [MED1007-101, N6-isopropyl-N2-(4-phenylquinoline-6-yl)-9H-purine-2,6-diamine] | 8600 nM | 616 nM | 67 nM | 441 nM |  |  |  |  |  |  | 49.5% | 126% | 75.7% | 95.6%
